Where “and” joins values, the source holds several entries; their conditions need not be identical. Equal values may be shown once. Read-outs that look alike come from different tables or passages of the source.
Legend:
SXA [1] = molecular target: T1, SXA (Selenomonas ruminantium, UniProt O52575); experiment: SXA-catalyzed hydrolysis of 4NP-glycoside substrates, initial rates (Methods A and B); assay type: biochemical; conditions: for Relative Rate: 5 mM 4NP glycoside, 100 mM succinate-NaOH, pH 5.3, 25° C., Method A, initial rate relative to 4NPX;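 on all read-outs here: initial rates from 4-nitrophenol release, tracked by absorbance over roughly 0.3 min and converted using product-minus-substrate extinction differences, in 1 mL mixtures started by enzyme addition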
SXA [2] = molecular target: T1, SXA; conditions: for Km: 100 mM succinate-NaOH, pH 5.3, 25° C. (Example 1)
[3] = molecular target: T2, Selenomonas ruminantium GA192 β-D-xylosidase (SXA), wild type, SEQ ID NO: 2 (Pseudoselenomonas ruminantium, UniProt O52575); experiment: Steady-state kinetics of SXA with 4NPX2, A2 and X2-X6 by HPLC (Example 1)
SXA [4] = molecular target: T1, SXA; conditions: for Km / kcat: 100 mM succinate-NaOH, improved quench (Example 3); for Km / kcat / kcat lower than previous determination (Example 1) / kcat/Km lower than previous determination (Example 1): pH 5.3, 25° C.; for factor by which kcat of SXA is higher than that of the Bacillus pumilus enzyme: SXA pH 5.3, 25° C. vs B. pumilus pH 7.15, 25° C.
[5] = molecular target: T2, Selenomonas ruminantium GA192 β-D-xylosidase (SXA), wild type, SEQ ID NO: 2; experiment: Steady-state kinetics of SXA with X2-X6, improved quenching, HPLC (Example 3); conditions: for factor by which kcat is higher than that of the Bacillus pumilus enzyme: SXA pH 5.3 vs B. pumilus pH 7.15, 25° C
[6] = substrate: O=[N+]([O-])c1ccc(O[C@@H]2OC[C@@H](O)[C@H](O)[C@H]2O)cc1; experiment: purified protein, by the assay type; conditions: other: 100 mM succinate-NaOH, pH 5.3, 25° C, Method A
[7] = 100 mM succinate-NaOH, pH 5.3, 25° C
[8] = pH 5.3, 25° C (improved technique), approximate
[9] = hydrolysis of X6, pH 5.30, 25° C.
[10] = pH 5.3, 25° C (Example 1), approximate

Molecule: O=[N+]([O-])c1ccc(O[C@H]2O[C@H](CO)[C@@H](O)[C@H](O)[C@H]2O)cc1 [4-Nitrophenyl-α D-glucopyranoside]
- Relative Rate (SXA [1]): <10^−6

Molecule: O=[N+]([O-])c1ccc(O[C@H]2O[C@H](CO)[C@H](O)[C@H](O)[C@H]2O)cc1 [4-Nitrophenyl-α-D-galactopyranoside]
- Relative Rate (SXA [1]): <10^−6

Molecule: O=[N+]([O-])c1ccc(O[C@H]2O[C@H](CO)[C@@H](O)[C@H](O)[C@@H]2O)cc1 [4-Nitrophenyl-α-D-mannopyranoside]
- Relative Rate (SXA [1]): <10^−6

Molecule: O=[N+]([O-])c1ccc(O[C@H]2OC[C@@H](O)[C@H](O)[C@H]2O)cc1 [4-Nitrophenyl-α-D-xylopyranoside]
- Relative Rate (SXA [1]): <10^−6

Molecule: O=[N+]([O-])c1ccc(O[C@@H]2OC[C@H](O)[C@H](O)[C@H]2O)cc1 [4-Nitrophenyl-α-L-arabinopyranoside]
- Relative Rate (SXA [1]): <10^−6

Molecule: C[C@@H]1O[C@@H](Oc2ccc([N+](=O)[O-])cc2)[C@@H](O)[C@H](O)[C@@H]1O [4-Nitrophenyl-α-L-fucopyranoside]
- Relative Rate (SXA [1]): <10^−6

Molecule: C[C@@H]1O[C@@H](Oc2ccc([N+](=O)[O-])cc2)[C@H](O)[C@H](O)[C@H]1O [4-Nitrophenyl-α-L-rhamnopyranoside]
- Relative Rate (SXA [1]): <10^−6

Molecule: C[C@H]1O[C@@H](Oc2ccc([N+](=O)[O-])cc2)[C@H](O)[C@@H](O)[C@H]1O [4-Nitrophenyl-β-D-fucopyranoside]
- Relative Rate (SXA [1]): <10^−6

Molecule: O=[N+]([O-])c1ccc(O[C@@H]2O[C@H](CO)[C@H](O)[C@H](O)[C@H]2O)cc1 [4-Nitrophenyl-β-D-galactopyranoside]
- Relative Rate (SXA [1]): <10^−6

Molecule: O=[N+]([O-])c1ccc(O[C@@H]2O[C@H](CO)[C@@H](O)[C@H](O)[C@H]2O)cc1 [4-Nitrophenyl-β-D-glucopyranoside]
- Relative Rate (SXA [1]): <10^−6

Molecule: O=[N+]([O-])c1ccc(O[C@@H]2O[C@H](CO)[C@@H](O)[C@H](O)[C@@H]2O)cc1 [4-Nitrophenyl-β-D-mannopyranoside]
- Relative Rate (SXA [1]): <10^−6

Molecule: O=[N+]([O-])c1ccc(O[C@H]2OC[C@H](O)[C@H](O)[C@H]2O)cc1 [4-Nitrophenyl-β-L-arabinopyranoside]
- Relative Rate (SXA [1]): <10^−6
- rate relative to that of 4NPX, first inspection (SXA [1]; reaction conditions of Table 2, later attributed to a contaminant): less than 0.1%

Molecule: C[C@@H]1O[C@H](Oc2ccc([N+](=O)[O-])cc2)[C@@H](O)[C@H](O)[C@@H]1O [4-Nitrophenyl-β-fucopyranoside]
- Relative Rate (SXA [1]): <10^−6

Molecule: OC[C@@H]1O[C@@H](OC[C@@H]2OC(O)[C@H](O)[C@H]2O)[C@H](O)[C@H]1O (stereo partly drawn) [A2, 1,5-α-L-arabinobiose]
- Km (SXA [2]): 1200 ± 100 µM
- factor by which kcat is reduced in comparison to 4NPA (SXA [2]; pH 5.3, 25° C.): 36
- factor by which kcat is reduced in comparison to X2 (SXA [2]; pH 5.3, 25° C.): 5600
- relative kcat values (SXA [2]; pH 5.3 and 25° C., relative to A2): 1
- factor by which kcat is reduced vs X2 [3]: 5600 fold
- kcat [3, 7]: 0.074 ± 0.003 s⁻¹
- kcat factor between 4NPA and A2 ([3]; 4NPA larger / A2 reduced): 36 fold
- relative kcat value ([3]; pH 5.3, 25° C, A2 = 1): 1

Molecule: OC1OC[C@@H](O[C@@H]2OC[C@@H](O[C@@H]3OC[C@@H](O)[C@H](O)[C@H]3O)[C@H](O)[C@H]2O)[C@H](O)[C@H]1O (stereo partly drawn) [X3, 1,4-β-D-xylotriose]
- pH-independent kcat (SXA [4]): 98.0±2.3
- Km (SXA [4]): 2120 ± 100 µM
- kcat (SXA [4]): approximately 95.1 s^−1
- pKa1 of kcat versus pH (SXA [4]; Eq. 6, I=0.3 M, 25° C.): 3.21
- pKa1 of kcat/Km versus pH (SXA [4]; Eq. 6, I=0.3 M, 25° C.): 4.80±0.06
- pKa2 of kcat versus pH (SXA [4]; Eq. 6, I=0.3 M, 25° C.): 7.53±0.06
- pKa2 of kcat/Km versus pH (SXA [4]; Eq. 6, I=0.3 M, 25° C.): 7.30±0.04
- pKa1 of kcat versus pH (SXA [4]; Eq. 6, I=0.3 M, 25° C., listed as 1,4-β-D-xylotriose): 3.21±0.27
- pKa1 of 1/Km versus pH (SXA [4]; Eq. 7, I=0.3 M, 25° C.): 4.76±0.05
- pKa2 of 1/Km versus pH (SXA [4]; Eq. 7, I=0.3 M, 25° C.): 7.76±0.14
- factor by which kcat of SXA is higher than that of the Bacillus pumilus enzyme (SXA [4]): 32
- lower affinity of dianionic SXA (D14^−E186^−) than monoanionic SXA (D14^−E186^H) (SXA [4]; from pH dependencies of 1/Km): 3.1 fold and 3 fold
- pH-independent kcat/Km (SXA [4]; kcat/Km versus pH, Eq. 6, I=0.3 M, 25° C. (FIG. 20)): 58.9±3.3 mM^−1s^−1
- kcat lower than previous determination (Example 1) (SXA [4]): 45%
- kcat/Km lower than previous determination (Example 1) (SXA [4]): 1%
- kcat [5, 7]: 95.1 ± 1.5 s⁻¹
- factor by which kcat is higher than that of the Bacillus pumilus enzyme [5]: 32
- affinity of dianionic SXA (D14^−E186^−), lower than that of monoanionic SXA (D14^−E186^H) ([5]; from pH dependence of 1/Km): 3.1 fold and 3 fold
- kcat [5, 8]: approximately 95.1 sec^−1
- pH-independent kcat ([5]; pH profile, I=0.3 M, 25° C): 98.0±2.3
- Km (SXA [2]): 3800 µM
- time of peak height of intermediate product, observed (SXA [2]; hydrolysis of X4, pH 5.30, 25° C.): 4130 s
- time of peak height of intermediate product, observed (SXA [2]; [9]): 10822 s
- kcat [3, 7]: 172 s⁻¹ and 172 ± 14 s⁻¹

Molecule: OC1OC[C@@H](O[C@@H]2OC[C@@H](O[C@@H]3OC[C@@H](O[C@@H]4OC[C@@H](O)[C@H](O)[C@H]4O)[C@H](O)[C@H]3O)[C@H](O)[C@H]2O)[C@H](O)[C@H]1O (stereo partly drawn) [X4, 1,4-β-D-xylotetraose]
- Km (SXA [4]): 2750 ± 230 µM
- kcat (SXA [4]): approximately 91.6 s^−1
- factor by which kcat of SXA is higher than that of the Bacillus pumilus enzyme (SXA [4]): 31
- kcat lower than previous determination (Example 1) (SXA [4]): 39%
- kcat/Km lower than previous determination (Example 1) (SXA [4]): 12%
- kcat [5, 7]: 91.6 ± 2.3 s⁻¹
- factor by which kcat is higher than that of the Bacillus pumilus enzyme [5]: 31
- kcat [5, 8]: approximately 91.6 sec^−1
- Km (SXA [2]): 4000 µM
- time of peak height of intermediate product, observed (SXA [2]; [9]): 8260 s
- kcat [3, 7]: 150 s⁻¹ and 150 ± 5 s⁻¹
- kcat [3, 10]: approximately 150 sec^−1

Molecule: OC1OC[C@@H](O[C@@H]2OC[C@@H](O[C@@H]3OC[C@@H](O[C@@H]4OC[C@@H](O[C@@H]5OC[C@@H](O)[C@H](O)[C@H]5O)[C@H](O)[C@H]4O)[C@H](O)[C@H]3O)[C@H](O)[C@H]2O)[C@H](O)[C@H]1O (stereo partly drawn) [X5, 1,4-β-D-xylopentaose]
- Km (SXA [4]): 2860 ± 380 µM
- kcat (SXA [4]): approximately 77.2 s^−1
- factor by which kcat of SXA is higher than that of the Bacillus pumilus enzyme (SXA [4]): 20
- kcat lower than previous determination (Example 1) (SXA [4]): 49%
- kcat/Km lower than previous determination (Example 1) (SXA [4]): 34%
- kcat [5, 7]: 77.2 ± 3.6 s⁻¹
- factor by which kcat is higher than that of the Bacillus pumilus enzyme [5]: 20
- kcat [5, 8]: approximately 77.2 sec^−1
- Km (SXA [2]): 3700 µM
- time of peak height of intermediate product, observed (SXA [2]; [9]): 3138 s
- kcat [3, 7]: 150 s⁻¹ and 150 ± 15 s⁻¹
- kcat [3, 10]: approximately 150 sec^−1

Molecule: OC1OC[C@@H](O[C@@H]2OC[C@@H](O[C@@H]3OC[C@@H](O[C@@H]4OC[C@@H](O[C@@H]5OC[C@@H](O[C@@H]6OC[C@@H](O)[C@H](O)[C@H]6O)[C@H](O)[C@H]5O)[C@H](O)[C@H]4O)[C@H](O)[C@H]3O)[C@H](O)[C@H]2O)[C@H](O)[C@H]1O (stereo partly drawn) [X6, 1,4-β-D-xylohexaose]
- Km (SXA [4]): 3120 ± 210 µM
- kcat (SXA [4]): approximately 81.5 s^−1
- factor by which kcat of SXA is higher than that of the Bacillus pumilus enzyme (SXA [4]): 27
- kcat lower than previous determination (Example 1) (SXA [4]): 15%
- kcat/Km lower than previous determination (Example 1) (SXA [4]): 25%
- kcat [5, 7]: 81.5 ± 2.0 s⁻¹
- factor by which kcat is higher than that of the Bacillus pumilus enzyme [5]: 27
- kcat [5, 8]: approximately 81.5 sec^−1
- Km (SXA [2]): 2700 µM
- kcat [3, 7]: 96 s⁻¹ and 96 ± 7 s⁻¹

B1: Selenomonas ruminantium GA192 β-D-xylosidase (SXA, parent SEQ ID NO: 2) variant D127A (Pseudoselenomonas ruminantium; D127A) (protein)
chain: MNIQNPVLKGFNPDPSIVRAGDDYYIATSTFEWFPGVQIHHSKDLVHWHLVAHPLSTTEFLDMKGNPDSGGIWAPDLSYADGKFWLIYTDVKVVDGMWKDCHNYLTTAEDIKGPWSKPILLNGAGFAASLFHDPSGKKYLVNMYWDQRVYHHNFYGIALQEYSVAEEKLIGKPEIIYKGTDIAYTEGPHLYYINDMYYLMTAEGGTTYQHSETIARSKTIHGPYEIQPDYPLLSAWKEVHNPLQKCGHASLVETQNGQWYLAHLTGRPLPAPAGFPSREREQHAFCPLGRETAIQKIEWQDGWPVVVGGQQGSLEVEAPDLPQQEWAPTYEERDDFDKDTLNINFQTLRIPFSEHLGSLTARPGFLRLYGRESLQSKFTQAHIARRWQSFNFDAGTSVEFSPNSFQQMAGLTCYYNTENWSSIHVTWNEEKGRIIDLVTADNGTFSMPLAGAEIPIPDEVKTVHFKVSVRGRIYQYAYSFDGETFHTLPIELPSWKLSDDYVRGGGFFTGAFVGINAIDITGTALPADFDYFTYKELD
- Km [6]: 881 ± 59 µM
